Experiments:
[1] = Ratio of drug concentration in brain to plasma in Wistar Han rat at 100 mg/kg, po measured at 6 hrs by HPLC-MS/MS
[2] = Ratio of drug concentration in brain to plasma in Wistar Han rat at 100 mg/kg, po measured at 0.37 hrs by HPLC-MS/MS
[3] = Drug concentration in Wistar Han rat brain at 100 mg/kg, po measured at 2 hrs by HPLC-MS/MS
[4] = Drug concentration in Wistar Han rat plasma at 100 mg/kg, po measured at 2 hrs by HPLC-MS/MS
[5] = Drug concentration in Wistar Han rat plasma at 100 mg/kg, po measured at 6 hrs by HPLC-MS/MS
[6] = Drug concentration in Wistar Han rat brain at 100 mg/kg, po measured at 6 hrs by HPLC-MS/MS
[7] = Drug concentration in Wistar Han rat plasma at 100 mg/kg, po measured at 0.37 hrs by HPLC-MS/MS
[8] = Ratio of drug concentration in brain to plasma in Wistar Han rat at 100 mg/kg, po measured at 2 hrs by HPLC-MS/MS
[9] = Drug concentration in Wistar Han rat brain at 100 mg/kg, po measured at 0.37 hrs by HPLC-MS/MS
in vivo [10] = details: Sprague-Dawley, rat, po, 10 mg/kg
in vivo [11] = details: Sprague-Dawley, rat, plasma, po, 10 mg/kg
[12] = Drug concentration in Sprague-Dawley rat at 5 mg/kg, iv measured at 0 hrs; details: in vivo
[13] = Half life in Sprague-Dawley rat at 5 mg/kg, iv; details: in vivo
[14] = Half life in Sprague-Dawley rat at 10 mg/kg, po; details: in vivo
[15] = Volume of distribution at steady state in Sprague-Dawley rat at 5 mg/kg, iv; details: in vivo
in vivo [16] = details: Sprague-Dawley, rat, plasma, po, 10 mg/kg; remark: listed apart in the source
[17] = Clearance in Sprague-Dawley rat at 5 mg/kg, iv; details: in vivo

SMILES	Kp at 6 h [1]	Kp at […] [2]	concentration at 2 h [3] [ng/g]	concentration at 2 h [4] [ng/mL]	concentration at 6 h [5] [ng/mL]	concentration at 6 h [6] [ng/g]	concentration at […] [7] [ng/mL]	Kp at 2 h [8]	concentration at […] [9] [ng/g]	bioavailability (in vivo [10]) [%]	AUC(0-inf) (in vivo [11]) [ng·h/mL]	concentration at 0 h [12] [ng/mL]	half-life [13] [min]	half-life [14] [min]	Vd [15] [L/kg]	Cmax at 24 h (in vivo [16]) [ng/mL]	clearance [17] [mL/min/kg]
COc1ccc2cccc(CCNC(C)=O)c2c1 [AGOMELATINE]	2.73	3.19	3200	1230	450	1210	4200	2.73	13800	–	–	–	–	–	–	–	–
COc1ccc2[nH]cc(CCNC(C)=O)c2c1 [MELATONIN]	–	–	–	–	–	–	–	–	–	53.5	2490	935	19.8	31.8	1.05	2790	35.2
CCC(=O)NCC[C@@H]1CCc2ccc3c(c21)CCO3 [RAMELTEON]	1.02	0.91	3030	3450	1150	1190	3160	0.86	2850	–	–	–	–	–	–	–	–
